{"source": "a melting point compilation (Tetko et al.; mined from patent text by program, amines drawn as free bases though some values may be those of a salt)", "data": [{"units": {"melting point": "°C"}, "values": [{"smiles": "Cc1csc2c(Br)cc3cc(C(=O)O)[nH]c3c12", "melting point": "229 to 241"}, {"smiles": "Cc1nc2ncnn2c2c1CCN2CC(C)C", "melting point": "143 to 145"}, {"smiles": "Cc1cn2nc(-c3ccccc3)nc2cc1NC(=O)c1c(C(=O)N2CCC2)cnn1C", "melting point": "226 to 228"}, {"smiles": "COC(=O)C(N)(CF)Cc1ccc(O)cc1", "note": "(stereo unspecified)", "melting point": 130}, {"smiles": "CC(C)(C)OC(=O)NCCn1cc(C#N)c(-c2cccc(F)c2)c1Cl", "melting point": "97 to 99"}, {"smiles": "CS(=O)c1ccc(Oc2ccc(Cl)c(Cl)c2)nc1C#N", "note": "(stereo unspecified)", "melting point": "165 to 167"}, {"smiles": "O=C1c2ccc(N3CCCC3)c3cc([N+](=O)[O-])cc(c23)C(=O)N1O", "melting point": "290 to 291"}, {"smiles": "CCCCCCCCCCCCCCCCCCOc1ccc(C(=O)OCC)cc1[N+](=O)[O-]", "melting point": "48 to 56"}, {"smiles": "Cc1[nH]n(Cc2ccc([N+](=O)[O-])cc2)c2nc(-c3ccncc3)nc(=O)c1-2", "melting point": "275 to 281"}, {"smiles": "CO[C@@H]1[C@H](O)[C@@H](CO)O[C@H]1n1cnc2c(N[C@H](C)Cc3ccc(Cl)s3)ncnc21", "melting point": "84 to 85"}, {"smiles": "COC(=O)C1Cc2c([nH]c3ccccc23)CN1", "note": "(stereo unspecified)", "melting point": "164 to 165"}, {"smiles": "CC(C)Cn1cnc2c(Br)c(NC3=NCCN3)ccc21", "melting point": "226 to 227"}, {"smiles": "COC(=O)c1cccc(NC(=O)N(C)C)c1", "melting point": 110}, {"smiles": "Nc1ncc2cc(-c3c(Cl)cccc3Cl)c(N)nc2n1", "melting point": "325 to 332"}, {"smiles": "CC(C)(C)c1cc(C=C2SC(=S)N(C3CC3)C2=O)cc(C(C)(C)C)c1O", "melting point": "158 to 168"}, {"smiles": "O=C(Nc1cnc2c(c1)nc1n2CCC1O)c1cc2cc(C(F)(F)F)ccc2n1Cc1cccc(F)c1", "note": "(stereo unspecified)", "melting point": "267 to 268"}, {"smiles": "O=C1C2=NCC3(CCCC3)CN2c2ccc(S(=O)(=O)N3CCCC3CN3CCOCC3)cc21", "note": "(stereo unspecified)", "melting point": "163 to 164"}, {"smiles": "CN(C)CC(C(O)c1ccc(N)cc1)N1CCC(Cc2ccccc2)CC1", "note": "(stereo unspecified)", "melting point": "121 to 125"}, {"smiles": "CCOC(=O)c1cnc2c3ccccc3c(OC)cn2c1=O", "melting point": "190 to 193"}, {"smiles": "COc1cc(C=O)ccc1OCC1CO1", "note": "(stereo unspecified)", "melting point": "56 to 58"}, {"smiles": "COc1ccc2c(c1)N=C(N1CCN(C)CC1)c1cccc3c1N2CC3", "melting point": "152 to 155"}, {"smiles": "O=c1[nH]c2ncc(-c3ccc4[nH]ccc4c3)nc2n1CC1CCOCC1", "melting point": "305 to 308"}, {"smiles": "O=C(Cn1nc(C(F)(F)F)cc1Cl)N1CCC(c2nc(C3=NOC(c4ccccc4)C3)cs2)CC1", "note": "(stereo unspecified)", "melting point": "128 to 131"}, {"smiles": "CCCCCCCC(=O)N1CCN(c2ccc3c(c2)N2CCN=C2C(c2ccccc2)=[N+]3[O-])CC1", "melting point": "212 to 213"}, {"smiles": "O=C(CN(Cc1ccc(OCc2ccccc2)cc1)C(=O)[C@H](Cc1c[nH]cn1)NC(=O)OCc1ccccc1)NCCCCc1ccccc1", "melting point": "58 to 61"}, {"smiles": "CN(C(N)=O)[C@@H]1c2cc(C#N)ccc2OC(C)(C)[C@H]1O", "note": "(relative stereo)", "melting point": "135 to 137"}, {"smiles": "Cc1ccc2c(n1)sc1c(Cl)nnnc12", "melting point": "188 to 189"}, {"smiles": "O=C(Nc1nccs1)c1nc(-c2ccc([N+](=O)[O-])cc2)[nH]c1-c1ccc(CO)cc1", "melting point": "249 to 252"}, {"smiles": "CCCc1cc(C(=O)NCCC(N)=O)ccc1OC(C(=O)NS(=O)(=O)c1ccc(C(C)C)cc1)c1ccc2c(c1)OCO2", "note": "(stereo unspecified)", "melting point": "110 to 112"}, {"smiles": "O=C(Nc1cccc2c1ncc1ccc(O)cc12)c1c(Cl)cccc1Cl", "melting point": "> 250"}, {"smiles": "COC(=O)c1c(SCc2ccc(OC)cc2)nc(C)n1Cc1cc2c(cc1Cl)OCO2", "melting point": 169}, {"smiles": "CCOC(=O)/C=C/c1cc(O)ccc1Br", "melting point": "96 to 98"}, {"smiles": "Cc1nc2n(n1)C(N)(c1ccccc1)c1cc(Cl)ccc1-2", "note": "(stereo unspecified)", "melting point": "173 to 175"}, {"smiles": "CCOC(=O)COc1nc(-c2ccccc2)nc(C)c1C", "melting point": "90 to 91"}, {"smiles": "COc1ccc2c(c1)C(c1ccccc1)=Nn1c(C)cnc1C2", "melting point": 140}, {"smiles": "CN1CCN(c2cnc(-c3cc(Cl)cc(Cl)c3Cl)c(N)n2)CC1", "melting point": 185}, {"smiles": "COc1cc2c(cc1O)C(=O)C1c3c(cc(OC(C)C)c(OC)c3-2)CCN1C", "note": "(stereo unspecified)", "melting point": "240 to 242"}, {"smiles": "CCn1c([N+](=O)[O-])cnc1-c1nnc2ccc(N=CN(C)C)nn12", "melting point": "198 to 200"}, {"smiles": "O=Cc1csc(Cc2ccccc2)n1", "melting point": 78}, {"smiles": "CC(=O)Oc1ccc(C(=O)NOCc2ccccc2)cc1", "melting point": "120 to 122"}, {"smiles": "Cc1cc(-c2ccccc2C)ccc1NC(=O)c1ccc2n1Cc1ccccc1N(C(=O)COc1ccc(Cl)cc1)C2", "melting point": "159 to 161"}, {"smiles": "CC(C)(C)c1ccccc1NC(=O)OCC1(COC(=O)Nc2ccccc2C(C)(C)C)CSc2ccccc2C1=O", "melting point": "62 to 68"}, {"smiles": "NC(=CC(=O)c1ccccn1)C1CC1", "melting point": "145 to 150"}, {"smiles": "CCC1(C(=O)C(C(O)C(Cl)(Cl)Cl)n2cncn2)CCCC1", "note": "(stereo unspecified)", "melting point": "194 to 196"}, {"smiles": "COc1cc(C(C)=O)ccc1OCCN1CCC(C(O)(c2ccc(F)cc2)c2ccc(F)cc2)CC1", "melting point": "131 to 135"}, {"smiles": "COc1ccc(Nc2nc(NC3CCCCCC3)nc(Oc3ccc(I)cc3)n2)cc1Cl", "melting point": "80 to 82"}, {"smiles": "O=C(CCc1ccc(I)cc1)Cn1ccnc1", "melting point": "124 to 125"}, {"smiles": "CCc1c(C(=O)C(N)=O)c2c(OCC(=O)N(C)OCc3ccccc3)cccc2n1Cc1ccccc1", "melting point": "186 to 188"}, {"smiles": "CCOC(=O)COc1ccnc2c(N)cccc12", "melting point": 94}, {"smiles": "CCN(CCC(=O)O)C(=S)Nc1c(C)cccc1C", "melting point": "115 to 118"}, {"smiles": "Cn1nc(-c2ccncc2)nc1-c1ccccn1", "melting point": "145 to 146"}, {"smiles": "COC(=O)C(=Cc1ccc2c(c1)CCO2)N=[N+]=[N-]", "melting point": "77 to 80"}, {"smiles": "COc1cccc(-c2nc(N)ncc2-c2ccc(=O)n(C(C)C)n2)c1", "melting point": 211}, {"smiles": "O=S1C(c2ccccc2)CC2(CC1c1ccccc1)OCCO2", "note": "(stereo unspecified)", "melting point": "230 to 232"}, {"smiles": "CC(CC#N)n1nnc2cc3c(=O)n(C(C)Cn4ncnn4)nnc3cc2c1=O", "note": "(stereo unspecified)", "melting point": "105 to 108"}, {"smiles": "CNC(=O)C1=C(C)OC(C)=C(C(=O)NC)C1c1ccc(Cl)cc1", "melting point": "256 to 259"}, {"smiles": "O=[N+]([O-])c1cc(Cl)cc(C(O)c2cc(Cl)cc([N+](=O)[O-])c2O)c1O", "melting point": 180}, {"smiles": "O=[N+]([O-])c1ccc(OS(=O)(=O)C(F)(F)F)c2oc3ccccc3c12", "melting point": "102 to 103"}, {"smiles": "COC(=O)NC(CCc1ccccc1)C(=O)O", "note": "(stereo unspecified)", "melting point": "108 to 110"}, {"smiles": "Cc1[nH]c(C(=O)N2CC=CN2)c(C)c1-c1nc2ccc(C(=O)c3ccccc3)cc2[nH]1", "melting point": "148 to 150"}, {"smiles": "CCOC(=O)Nc1ccc(C(c2ccccc2)n2ccnc2)cc1CO", "note": "(stereo unspecified)", "melting point": 143}, {"smiles": "CCCS(=O)(=O)c1ncc(C(F)(F)F)cc1Cl", "melting point": "41 to 42"}, {"smiles": "CC(CO)Nc1c(Br)cnc2cc(Cl)ccc12", "note": "(stereo unspecified)", "melting point": "145 to 147"}, {"smiles": "CC(COc1ccc(CC2SC(=O)NC2=O)cc1)N1CC(COc2ccccc2)OC1=O", "note": "(stereo unspecified)", "melting point": "54 to 56"}, {"smiles": "COC(CO)(OC)C1(c2ccc(Cl)cc2)CCC1", "melting point": "73 to 74"}, {"smiles": "COc1ccc2ccc(OC)c3c2c1CCC3CCNC(=O)C1CC1", "note": "(stereo unspecified)", "melting point": 120}, {"smiles": "CCCOc1ccccc1-c1ccc(N)c(=O)[nH]1", "melting point": "158 to 161"}, {"smiles": "COc1ccc(C(=O)CCCCCBr)cc1F", "melting point": "47 to 48"}, {"smiles": "C[C@@H](NC(=O)c1ccc(-c2ccc(C#N)cc2)s1)[C@](O)(Cn1cncn1)c1ccc(F)cc1F", "melting point": "210 to 211"}, {"smiles": "CCNC(NC(C)=O)C(=O)NCc1ccccc1", "note": "(stereo unspecified)", "melting point": "123 to 125"}, {"smiles": "O=c1cc(CCCCBr)c2ccccc2[nH]1", "melting point": "156 to 158"}, {"smiles": "COc1cccc2c(=O)c3c(O)cc(OCC4CO4)cc3oc12", "note": "(stereo unspecified)", "melting point": 182}, {"smiles": "O[C@@H]1Cc2ccccc2C[C@H]1N1CCN(c2ccccc2)CC1", "note": "(relative stereo)", "melting point": "152 to 154"}, {"smiles": "Cc1c(C#N)[nH]n(-c2ccc(Cl)c(Cl)c2)c1=O", "melting point": 210}, {"smiles": "Cc1cccc2c1nc(C(C)C)n2Cc1c(F)cccc1F", "melting point": "151 to 153"}, {"smiles": "Cc1nc(=O)[nH]c2cc3c(cc12)OCO3", "melting point": "310 to 312"}, {"smiles": "Cc1sc2ncc(CO)n2c1C", "melting point": "166 to 167"}, {"smiles": "CC(C)(O)C1CCN(S(=O)(=O)c2cc(C#N)ccc2Oc2cc(Cl)ccc2Cl)CC1", "melting point": "221 to 225"}, {"smiles": "CC(C)Oc1ccc(-n2c(C(=O)NCCNC(=O)OC(C)(C)C)cc3cc(Oc4ccc(C(F)(F)F)cn4)ccc32)cc1", "melting point": "188 to 190"}, {"smiles": "Oc1ccc(CCc2cc(O)c(O)c(O)c2)cc1", "melting point": "180 to 188"}, {"smiles": "CCCOc1cc2c(cc1C1CCCc3oc(/C=C/C(=O)O)cc31)C(C)(C)CCC2(C)C", "note": "(stereo unspecified)", "melting point": "195 to 196"}, {"smiles": "CCOc1nc2c(nc1C(=O)N1CCN(C)CC1)c(C)nn2CC", "melting point": "111 to 112"}, {"smiles": "CC(COc1ccc(-c2ccc(C#N)cc2)cc1)N(O)C=O", "note": "(stereo unspecified)", "melting point": "141 to 144"}, {"smiles": "N[C@H]1CC[C@@H](N2CCNC2=O)CC1", "melting point": "121 to 123"}, {"smiles": "Nc1ccc([N+](=O)[O-])cc1S(N)(=O)=O", "melting point": "202 to 204"}, {"smiles": "C#CCNC(=O)c1ncn2c1CN(C)C(=O)c1sccc1-2", "melting point": "275 to 277"}, {"smiles": "N#Cc1cnc2cc(C#CCCCN3CCOCC3)ccc2c1Nc1ccc(Cl)cc1Cl", "melting point": "131 to 133"}, {"smiles": "CCCNC(=O)Nc1ccc(N)cc1C(=O)NCC1CCN(C(c2ccccc2)c2ccccc2)CC1", "melting point": "213 to 214"}, {"smiles": "COc1ccc(Cn2c(=O)cc(C(F)(F)F)n(C)c2=O)cc1", "melting point": "79 to 80"}, {"smiles": "N#Cc1ccc2c(c1)CS(=O)(=O)NN=C2c1ccc(F)cc1", "melting point": "218 to 219"}, {"smiles": "O=[N+]([O-])c1ccc2c(c1)C=CCCO2", "melting point": "94 to 95.5"}, {"smiles": "O=C(NCc1noc(-c2ccc(CN3CCCCCC3)s2)n1)c1ccccc1", "melting point": "79 to 81"}, {"smiles": "Nc1ncc2cc(-c3c(Cl)cccc3Cl)c(=O)n(Cc3ccccc3)c2n1", "melting point": "220 to 222"}, {"smiles": "CC(C)(c1ccccc1)c1ccc(N)c(S(=O)(=O)O)c1", "melting point": "263 to 265"}, {"smiles": "c1ccc2c(c1)Cn1cccc1C1CNCCN21", "note": "(stereo unspecified)", "melting point": "56 to 58"}, {"smiles": "CCC(=O)c1cc(C2(c3cccc(NC(=O)COC)c3)N=C(N)N(C)C2=O)cn1CC", "note": "(stereo unspecified)", "melting point": "95 to 115"}, {"smiles": "O=c1oc2ccc(-c3ccc(F)cc3F)cc2c(=O)n1-c1cccc(C(F)(F)F)c1", "melting point": "165 to 166"}, {"smiles": "COc1ccc(/C=C/c2cnccn2)cc1OC1CCCC1", "melting point": "81 to 83"}, {"smiles": "CCOC(=O)c1cnn2c1c(SC)nc1ccccc12", "melting point": "97 to 98"}, {"smiles": "N#Cc1c(F)cccc1Nc1c(F)cccc1F", "melting point": "145 to 146"}, {"smiles": "COC(=O)c1ncoc1-c1cc(OC)c(OC)c(OC)c1", "melting point": "175 to 176"}]}]}
